Consider 54 compounds from patent US20020026053A1, “Novel 3-(substituted) -2- indolinones compounds and use thereof as inhibitors of protein kinase activity” (priority 1997, published 2002).

Each structure is given as a SMILES string.

The assay deals with T1, EGFR (Homo sapiens, UniProt P00533).
T1 construct: endogenous in cells; host or cells: A431 cells (lysate, captured with SUMO1 anti-EGFR antibody)
Put plainly: Biochemical EGFR Assay. On the set-up: concentration or dose not given beside the values. The essentials: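 EGFR from A431 lysate was captured on anti-EGFR-coated wells and preincubated 30 min with compound (diluted 1:10 in TBS) at room temperature. After ATP/MnCl2 phosphorylation for 5 min, the reaction was stopped with EDTA. Phosphotyrosine was detected by ELISA (anti-phosphotyrosine, peroxidase conjugate, ABTS) at 410 nm.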

T1 sequence (P00533 25-1210): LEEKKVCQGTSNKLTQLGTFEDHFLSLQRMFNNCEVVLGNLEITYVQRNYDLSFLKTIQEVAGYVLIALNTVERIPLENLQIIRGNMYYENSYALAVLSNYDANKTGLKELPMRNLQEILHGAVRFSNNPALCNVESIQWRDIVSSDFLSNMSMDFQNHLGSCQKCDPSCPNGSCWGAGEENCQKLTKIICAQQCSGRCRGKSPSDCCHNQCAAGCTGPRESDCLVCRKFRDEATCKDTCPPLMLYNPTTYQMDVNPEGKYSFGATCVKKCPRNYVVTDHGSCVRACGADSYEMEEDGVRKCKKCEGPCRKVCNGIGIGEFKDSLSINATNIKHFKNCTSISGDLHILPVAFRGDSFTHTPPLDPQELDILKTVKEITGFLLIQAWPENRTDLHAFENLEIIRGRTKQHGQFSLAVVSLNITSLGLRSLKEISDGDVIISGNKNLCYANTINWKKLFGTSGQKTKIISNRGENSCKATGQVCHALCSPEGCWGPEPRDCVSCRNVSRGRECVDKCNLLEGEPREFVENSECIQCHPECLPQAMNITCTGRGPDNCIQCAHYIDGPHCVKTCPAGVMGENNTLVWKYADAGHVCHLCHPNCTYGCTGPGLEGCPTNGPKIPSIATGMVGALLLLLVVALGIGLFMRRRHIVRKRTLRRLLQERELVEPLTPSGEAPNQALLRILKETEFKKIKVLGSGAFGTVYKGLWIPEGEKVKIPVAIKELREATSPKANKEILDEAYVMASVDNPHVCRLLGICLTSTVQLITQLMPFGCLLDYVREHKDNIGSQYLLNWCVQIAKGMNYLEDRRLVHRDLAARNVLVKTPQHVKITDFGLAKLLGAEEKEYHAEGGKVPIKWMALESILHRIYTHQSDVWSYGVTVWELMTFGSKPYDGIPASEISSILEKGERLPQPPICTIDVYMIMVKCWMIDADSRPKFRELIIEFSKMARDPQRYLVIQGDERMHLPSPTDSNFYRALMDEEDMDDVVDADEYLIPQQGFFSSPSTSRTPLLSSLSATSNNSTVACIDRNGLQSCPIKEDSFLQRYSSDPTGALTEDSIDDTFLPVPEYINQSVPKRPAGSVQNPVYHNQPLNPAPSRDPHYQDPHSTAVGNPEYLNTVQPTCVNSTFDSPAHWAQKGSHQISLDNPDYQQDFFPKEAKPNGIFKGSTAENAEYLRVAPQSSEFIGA

For `Cc1c(O)ccc(C=C2C(=O)Nc3c(Br)cc(Br)c(C)c32)c1O` [10718/H09], the “Biochem EGFR % Inhibition (P.167)” value was 34.2%.

For the compound `Cc1c(Br)cc(Br)c2c1C(=Cc1ccco1)C(=O)N2` [10718/H10], the “Biochem EGFR % Inhibition (P.167)” value was −5.7%.

In the case of `Cc1c(Br)cc(Br)c2c1C(=Cc1ccc([N+](=O)[O-])o1)C(=O)N2` [10718/H11], the “Biochem EGFR % Inhibition (P.167)” value is recorded as 4.4%.

For the compound `CCOc1ccc(C=C2C(=O)Nc3c(Br)cc(Br)c(C)c32)cc1OC` [10719/H02], the “Biochem EGFR % Inhibition (P.167)” value was 43.9%.

Turning to `Cc1c(Br)cc(Br)c2c1C(=Cc1ccc(O)c(O)c1)C(=O)N2` [10719/H03], the “Biochem EGFR % Inhibition (P.167)” value was found to be 25.1%.

As to `COc1ccc(C=C2C(=O)Nc3c(Br)cc(Br)c(C)c32)c(OC)c1` [10719/H04], the “Biochem EGFR % Inhibition (P.167)” value is −0.5%.

With `CCc1c(C)[nH]c(C=C2C(=O)Nc3c(Br)cc(Br)c(C)c32)c1C` [10719/H05], the “Biochem EGFR % Inhibition (P.167)” value is reported as 7.9%.

For the compound `COc1cc(OC)c(C=C2C(=O)Nc3c(Br)cc(Br)c(C)c32)c(OC)c1` [10719/H06], the “Biochem EGFR % Inhibition (P.167)” value is listed as −28.0%.

Take `CCN(CC)c1ccc(C=C2C(=O)Nc3c(Br)cc(Br)c(C)c32)c(O)c1` [10734/H05]: the “Biochem EGFR % Inhibition (P.167)” value was found to be 4.7%.

With `Cc1c(Br)cc(Br)c2c1C(=Cc1ccc([N+](=O)[O-])cc1)C(=O)N2` [10734/H06], the “Biochem EGFR % Inhibition (P.167)” value was −32.2%.

In the case of `Cc1c(Br)cc(Br)c2c1C(=Cc1cc(Br)cc(Br)c1O)C(=O)N2` [10734/H07], the “Biochem EGFR % Inhibition (P.167)” value was 6.6%.

For the compound `Cc1c(Br)cc(Br)c2c1C(=Cc1cccc(F)c1O)C(=O)N2` [10734/H08], the “Biochem EGFR % Inhibition (P.167)” value was found to be 2.9%.

For `Cc1c(Br)cc(Br)c2c1C(=Cc1ccc(O)c(Br)c1)C(=O)N2` [10734/H09], the “Biochem EGFR % Inhibition (P.167)” value is given as −4.2%.

For `Cc1c(Br)cc(Br)c2c1C(=Cc1ccc(C(C)(C)C)cc1)C(=O)N2` [10734/H10], the “Biochem EGFR % Inhibition (P.167)” value is recorded as −12.6%.

With `Cc1c(Br)cc(Br)c2c1C(=Cc1ccc(Br)s1)C(=O)N2` [10734/H11], the “Biochem EGFR % Inhibition (P.167)” value was −8.5%.

Regarding `Cc1ccccc1C=C1C(=O)Nc2c(Br)cc(Br)cc21` [10735/A02], the “Biochem EGFR % Inhibition (P.167)” value turned out to be 14.3%.

Regarding `O=C1Nc2c(Br)cc(Br)cc2C1=Cc1ccc(F)c(F)c1` [10735/A03], the “Biochem EGFR % Inhibition (P.167)” value is 28.8%.

As for `O=C1Nc2c(Br)cc(Br)cc2C1=Cc1cc(F)cc(F)c1` [10735/A04], the “Biochem EGFR % Inhibition (P.167)” value is on record as 5.0%.

Turning to `O=C1Nc2c(Br)cc(Br)cc2C1=Cc1cccc(C(F)(F)F)c1` [10735/A05], the “Biochem EGFR % Inhibition (P.167)” value amounted to 41.5%.

On to `O=C1Nc2c(Br)cc(Br)cc2C1=Cc1cc(C(F)(F)F)cc(C(F)(F)F)c1` [10735/A06], for which the “Biochem EGFR % Inhibition (P.167)” value is reported as 24.9%.

As for `N#Cc1ccccc1C=C1C(=O)Nc2c(Br)cc(Br)cc21` [10735/A07], the “Biochem EGFR % Inhibition (P.167)” value was 18.7%.

As for `O=C1Nc2c(Br)cc(Br)cc2C1=Cc1c(F)cccc1F` [10735/A08], the “Biochem EGFR % Inhibition (P.167)” value is reported as 10.9%.

With `O=C1Nc2c(Br)cc(Br)cc2C1=Cc1cccc2ccccc12` [10735/A09], the “Biochem EGFR % Inhibition (P.167)” value came to 13.0%.

Consider `O=C1Nc2c(Br)cc(Br)cc2C1=Cc1ccc(Cl)cc1Cl` [10735/A10], for which the “Biochem EGFR % Inhibition (P.167)” value turned out to be 10.2%.

For `O=C1Nc2c(Br)cc(Br)cc2C1=Cc1ccc(-c2ccccc2)cc1` [10735/A11], the “Biochem EGFR % Inhibition (P.167)” value worked out at 3.3%.

For `Cc1ccccc1C=C1C(=O)Nc2ccc(I)cc21` [10735/B02], the “Biochem EGFR % Inhibition (P.167)” value was 39.1%.

Consider `O=C1Nc2ccc(I)cc2C1=Cc1ccc(F)c(F)c1` [10735/B03], for which the “Biochem EGFR % Inhibition (P.167)” value was 42.9%.

Regarding `O=C1Nc2ccc(I)cc2C1=Cc1cc(F)cc(F)c1` [10735/B04], the “Biochem EGFR % Inhibition (P.167)” value was found to be 49.2%.

As for `O=C1Nc2ccc(I)cc2C1=Cc1cccc(C(F)(F)F)c1` [10735/B05], the “Biochem EGFR % Inhibition (P.167)” value is listed as 61.6%.

Regarding `O=C1Nc2ccc(I)cc2C1=Cc1cc(C(F)(F)F)cc(C(F)(F)F)c1` [10735/B06], the “Biochem EGFR % Inhibition (P.167)” value came out at 49.4%.

As for `N#Cc1ccccc1C=C1C(=O)Nc2ccc(I)cc21` [10735/B07], the “Biochem EGFR % Inhibition (P.167)” value was 47.7%.

On to `O=C1Nc2ccc(I)cc2C1=Cc1c(F)cccc1F` [10735/B08], for which the “Biochem EGFR % Inhibition (P.167)” value was 24.5%.

In the case of `O=C1Nc2ccc(I)cc2C1=Cc1cccc2ccccc12` [10735/B09], the “Biochem EGFR % Inhibition (P.167)” value is reported as 39.8%.

For `O=C1Nc2ccc(I)cc2C1=Cc1ccc(Cl)cc1Cl` [10735/B10], the “Biochem EGFR % Inhibition (P.167)” value is recorded as 30.1%.

For `O=C1Nc2ccc(I)cc2C1=Cc1ccc(-c2ccccc2)cc1` [10735/B11], the “Biochem EGFR % Inhibition (P.167)” value amounted to 52.4%.

As to `Cc1ccccc1C=C1C(=O)Nc2ccc(Br)c(C)c21` [10735/C02], the “Biochem EGFR % Inhibition (P.167)” value was 1.6%.

Regarding `Cc1c(Br)ccc2c1C(=Cc1ccc(F)c(F)c1)C(=O)N2` [10735/C03], the “Biochem EGFR % Inhibition (P.167)” value was 8.0%.

On to `Cc1c(Br)ccc2c1C(=Cc1cc(F)cc(F)c1)C(=O)N2` [10735/C04], for which the “Biochem EGFR % Inhibition (P.167)” value was 5.8%.

As for `Cc1c(Br)ccc2c1C(=Cc1cccc(C(F)(F)F)c1)C(=O)N2` [10735/C05], the “Biochem EGFR % Inhibition (P.167)” value turned out to be 14.5%.

As for `Cc1c(Br)ccc2c1C(=Cc1cc(C(F)(F)F)cc(C(F)(F)F)c1)C(=O)N2` [10735/C06], the “Biochem EGFR % Inhibition (P.167)” value is reported as 8.5%.

With `Cc1c(Br)ccc2c1C(=Cc1ccccc1C#N)C(=O)N2` [10735/C07], the “Biochem EGFR % Inhibition (P.167)” value is listed as −4.9%.

For `Cc1c(Br)ccc2c1C(=Cc1c(F)cccc1F)C(=O)N2` [10735/C08], the “Biochem EGFR % Inhibition (P.167)” value was −11.3%.

Take `Cc1c(Br)ccc2c1C(=Cc1cccc3ccccc13)C(=O)N2` [10735/C09]: the “Biochem EGFR % Inhibition (P.167)” value was −22.1%.

Turning to `Cc1c(Br)ccc2c1C(=Cc1ccc(Cl)cc1Cl)C(=O)N2` [10735/C10], the “Biochem EGFR % Inhibition (P.167)” value is given as −14.4%.

On to `Cc1c(Br)ccc2c1C(=Cc1ccc(-c3ccccc3)cc1)C(=O)N2` [10735/C11], for which the “Biochem EGFR % Inhibition (P.167)” value is −6.4%.

As for `CNS(=O)(=O)c1ccc2c(c1)C(=Cc1ccccc1C)C(=O)N2` [10735/D02], the “Biochem EGFR % Inhibition (P.167)” value is recorded as 20.3%.

On to `CNS(=O)(=O)c1ccc2c(c1)C(=Cc1ccc(F)c(F)c1)C(=O)N2` [10735/D03], for which the “Biochem EGFR % Inhibition (P.167)” value was 7.5%.

In the case of `CNS(=O)(=O)c1ccc2c(c1)C(=Cc1cc(F)cc(F)c1)C(=O)N2` [10735/D04], the “Biochem EGFR % Inhibition (P.167)” value amounted to 3.8%.

Turning to `CNS(=O)(=O)c1ccc2c(c1)C(=Cc1cccc(C(F)(F)F)c1)C(=O)N2` [10735/D05], the “Biochem EGFR % Inhibition (P.167)” value stood at 23.0%.

On to `CNS(=O)(=O)c1ccc2c(c1)C(=Cc1cc(C(F)(F)F)cc(C(F)(F)F)c1)C(=O)N2` [10735/D06], for which the “Biochem EGFR % Inhibition (P.167)” value is given as 8.0%.

Turning to `CNS(=O)(=O)c1ccc2c(c1)C(=Cc1ccccc1C#N)C(=O)N2` [10735/D07], the “Biochem EGFR % Inhibition (P.167)” value is reported as −17.6%.

For the compound `CNS(=O)(=O)c1ccc2c(c1)C(=Cc1c(F)cccc1F)C(=O)N2` [10735/D08], the “Biochem EGFR % Inhibition (P.167)” value is reported as −1.5%.

As to `CNS(=O)(=O)c1ccc2c(c1)C(=Cc1cccc3ccccc13)C(=O)N2` [10735/D09], the “Biochem EGFR % Inhibition (P.167)” value is given as −0.3%.

`CNS(=O)(=O)c1ccc2c(c1)C(=Cc1ccc(Cl)cc1Cl)C(=O)N2` [10735/D10]: the “Biochem EGFR % Inhibition (P.167)” value was found to be 46.5%.
